Assay results taken from US5942489A, “HGH-RH(1-29)NH2 analogues having antagonistic activity” (The Administrators of the Tulane Educational Fund, priority 1996, dated 1999).
Where a SMILES comes first, the peptide text is derived from it. Bridges are numbered along the chain shown (N, C = ends). Where no end group is shown, it is not given here. [ ]: non-standard residue; d: D form. The star is where a group is joined. Phe(4-Cl) = N[C@@H](Cc1ccc(Cl)cc1)C(=O)O; Nle = CCCC[C@H](N)C(=O)O; Abu = CC[C@H](N)C(=O)O; PhAc = O=C(Cc1ccccc1)*

Assays:
[1] = target: T1, rat pituitary GH-RH receptors (Rattus norvegicus, UniProt Q02644); experiment: GH-RH radioreceptor binding assay, competition with labelled [His1,Nle27]hGH-RH(1-32)NH2; conditions: for Ki: rat anterior pituitary membrane homogenates, read-out: Ki values, K
T1 construct: from tissue; host or cells: anterior pituitary of male Sprague-Dawley rats, crude membranes
T1 sequence (Q02644 23-464): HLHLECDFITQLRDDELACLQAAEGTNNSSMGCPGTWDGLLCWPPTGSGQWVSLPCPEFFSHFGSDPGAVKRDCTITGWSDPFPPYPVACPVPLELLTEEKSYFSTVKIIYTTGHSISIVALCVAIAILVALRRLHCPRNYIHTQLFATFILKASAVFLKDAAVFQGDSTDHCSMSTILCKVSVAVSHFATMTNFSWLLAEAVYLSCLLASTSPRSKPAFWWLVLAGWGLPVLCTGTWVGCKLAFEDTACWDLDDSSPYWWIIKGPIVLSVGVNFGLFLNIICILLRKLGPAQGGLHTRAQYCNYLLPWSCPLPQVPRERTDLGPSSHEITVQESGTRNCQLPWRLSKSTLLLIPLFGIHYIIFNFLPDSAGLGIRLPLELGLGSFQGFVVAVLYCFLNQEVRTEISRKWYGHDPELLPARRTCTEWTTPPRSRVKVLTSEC
Protocol: GH-RH Binding Assay. A sensitive radioreceptor binding assay was developed to determine the binding characteristics of the antagonists of GH-RH (G. Halmos, A. V. Schally et al., Receptor 3, 87-97, 1993), hereby incorporated by reference. The assay is based on binding of labelled [His^1, Nle^27 ]hGH-RH(1-32)NH2 to rat anterior pituitary membrane homogenates. Iodinated derivatives of [His^1, Nle^27 ]hGH-RH(1-32)NH2 are prepared by the chloramine-T method (F. C. Greenwood et al., Biochemistry 89:114-123, 1963), hereby incorporated by reference. Pituitaries from male Sprague-Dawley rats (250-300 g) are used to prepare crude membranes. For saturation binding analyses, membrane homogenates are incubated with at least 6 concentrations of [His^1,125I-Tyr^10,Nle^27 ]hGH-RH(1-32)NH2, ranging from 0.005 to 0.35 nM in the presence or absence of excess unlabelled peptide (1 μM).
The pellet is counted for radioactivity in a γ-counter. The affinities of the antagonist peptides tested to rat pituitary GH-RH receptors are determined in competitive binding experiments. The final binding affinities are estimated by Ki (dissociation constant of the inhibitor-receptor complex) and are determined by the Ligand PC computer program of Munson and Rodbard as modified by McPherson. Relative affinities compared to [Ac-Tyr^1, D-Arg^2 ]hGH-RH(1-29)NH2, the Standard antagonist, are calculated as the ratio of Ki of the tested GH-RH antagonist to the Ki of the Standard antagonist.

[2] = system: GH release induced by 1 nM hGH-RH(1-29)NH2 in superfused rat pituitary cells; experiment: Inhibition of hGH-RH(1-29)NH2-induced GH release in superfused rat pituitary system; format: cell-based; conditions: 100 nM peptide
Protocol: Superfused Rat Pituitary System. The analogues were tested in vitro in a test described earlier (S. Vigh and A. V. Schally, Peptides 5:241-[…], 1984) with modification (Z. Rekasi and A. V. Schally, P. N. A. S. 90:2146-2149, 1993).
Briefly, the cells are preincubated with peptides for 9 minutes (3 mL) at various concentrations. Immediately after the incubation, 1 nM hGH-RH(1-29)NH2 is administered for 3 minutes (1 mL) [0 minute response]. To check the duration of the antagonistic effect of the analogue, 1 nM hGH-RH(1-29)NH2 is applied 30, 60, 90, and 120 minutes later for 3 minutes [30, 60, 90, 120 min responses]. Net integral values of the GH responses are evaluated. GH responses are compared to and expressed as percent of the original GH response induced by 1 nM GH-RH(1-29)NH2. The effect of the new antagonists are compared to that of [Ac-Tyr^1,D-Arg^2 ]hGH-RH(1-29)NH2, the "Standard antagonist".
Growth Hormone Radio-immunoassay. Rat GH levels in aliquots of undiluted and diluted superfusion samples were measured by double-antibody radioimmunoassay using materials supplied by the National Hormone and Pituitary Program, Baltimore, Md. The results of RIA were analyzed with a computer program developed in our institute (V. Csernus and A. V. Schally, Harwood Academic (Greenstein, B. C. ed., London, pp. 71-109, 1991), hereby incorporated by reference. Inter-assay variation was less than 15% and intra-assay variation was less than 10%.

GH releasing activity = conditions: cited from earlier work; for bioactivity of shorter analogues: compared with hGH-RH(1-29)NH2; for GH releasing activity relative to GH-RH: percent of that of GH-RH
[3] = system: SW-1990 human pancreatic cancers; experiment: SW 1990 human pancreatic cancers in nude mice; format: in vivo; conditions: dose 10, 44 days treatment
Protocol: Small piees of an SW-1990 rumor growing in a nude mouse were transplated s.c. into the right flanks of 60 nu/nu male nude mice. Ten days after transplantation, 40 mice with well growing tumors were groupled into 4 groups with equal average tumor volume (16 mm^3) in each group. Treatment started 13 days after transplantation and was continuted for 44 days. The tumors were measured and volume was calculated weekly. Tumor volume changes are shown in Table V. On day 45 of treatment the mice were sacraficed under Metofane anesthesia by exsanguination from abdominal aorta. Blood was collected, tumor and organ weights were determined.

## CCCC[C@H](NC(=O)[C@@H](NC(=O)[C@H](CC(=O)O)NC(=O)[C@H](CCC(N)=O)NC(=O)[C@H](CC(C)C)NC(=O)[C@H](CC(C)C)NC(=O)[C@H](CCCCN)NC(=O)[C@H](CCCNC(=N)N)NC(=O)[C@H](C)NC(=O)[C@H](CO)NC(=O)[C@H](CC(C)C)NC(=O)[C@H](CCC(N)=O)NC(=O)[C@H](C)NC(=O)[C@H](CC(C)C)NC(=O)[C@@H](NC(=O)[C@H](CCCCN)NC(=O)[C@H](CCCNC(=N)N)NC(=O)[C@H](Cc1ccc(O)cc1)NC(=O)[C@H](CO)NC(=O)[C@H](CC)NC(=O)[C@@H](NC(=O)[C@H](Cc1ccc(Cl)cc1)NC(=O)[C@@H](NC(=O)[C@H](C)NC(=O)[C@H](CC(=O)O)NC(=O)[C@@H](CCCNC(=N)N)NC(=O)[C@H](Cc1ccc(O)cc1)NC(=O)Cc1ccccc1)[C@@H](C)CC)[C@@H](C)O)C(C)C)[C@@H](C)CC)C(=O)N[C@@H](CO)C(=O)N[C@@H](CCCNC(=N)N)C(N)=O [Peptide 11, [PhAc^0,D-Arg^2,Phe(pCl)^6,Abu^8,Ala^15,Nle^27],hGH-RH(1-29)NH2] (PhAc-Y[dR]DAI[Phe(4-Cl)]T[Abu]SYRKVLAQLSARKLLQDI[Nle]SR-NH2)
[1]
  Ki: 59 ± 1 pM

## CCCC[C@H](NC(=O)[C@@H](NC(=O)[C@H](CC(=O)O)NC(=O)[C@H](CCC(N)=O)NC(=O)[C@H](CC(C)C)NC(=O)[C@H](CC(C)C)NC(=O)[C@@H]1CCCCNC(=O)CC[C@H](NC(=O)[C@H](CCC(N)=O)NC(=O)[C@H](C)NC(=O)[C@H](CC(C)C)NC(=O)[C@@H](NC(=O)[C@H](CCCCN)NC(=O)[C@H](CCCNC(=N)N)NC(=O)[C@H](Cc2ccc(O)cc2)NC(=O)[C@H](CO)NC(=O)[C@H](CO)NC(=O)[C@@H](NC(=O)[C@H](Cc2ccc(Cl)cc2)NC(=O)[C@@H](NC(=O)[C@H](C)NC(=O)[C@H](CC(=O)O)NC(=O)[C@@H](CCCNC(=N)N)NC(=O)[C@H](Cc2ccc(O)cc2)NC(=O)Cc2ccccc2)[C@@H](C)CC)[C@@H](C)O)C(C)C)C(=O)N[C@@H](CO)C(=O)N[C@@H](C)C(=O)N[C@@H](CCCNC(=N)N)C(=O)N1)[C@@H](C)CC)C(=O)N[C@@H](CO)C(=O)N[C@@H](CCCNC(=N)N)C(N)=O [Peptide 18, cyclo^17,21 [PhAc^0,D-Arg^2,Phe(pCl)^6,Ser^8,Ala^15,Glu^17,Nle^27]hGH-RH(1-29)NH2] (PhAc-Y[dR]DAI[Phe(4-Cl)]TSSYRKVLAQESARKLLQDI[Nle]SR-NH2; lactam 17-21)
[1]
  Ki: 159 ± 40 pM

## CCCC[C@H](NC(=O)[C@@H](NC(=O)[C@@H]1CCC(=O)NCCCC[C@H](NC(=O)[C@H](CCCNC(=N)N)NC(=O)[C@H](C)NC(=O)[C@H](CO)NC(=O)[C@H](CC(C)C)NC(=O)[C@H](CCC(N)=O)NC(=O)[C@H](C)NC(=O)[C@H](CC(C)C)NC(=O)[C@@H](NC(=O)[C@H]2CCCCNC(=O)CC[C@H](NC(=O)[C@@H](NC(=O)[C@H](Cc3ccc(Cl)cc3)NC(=O)[C@@H](NC(=O)[C@H](C)NC(=O)[C@H](CC(=O)O)NC(=O)[C@@H](CCCNC(=N)N)NC(=O)[C@H](Cc3ccc(O)cc3)NC(=O)Cc3ccccc3)[C@@H](C)CC)[C@@H](C)O)C(=O)N[C@@H](CO)C(=O)N[C@@H](Cc3ccc(O)cc3)C(=O)N[C@@H](CCCNC(=N)N)C(=O)N2)C(C)C)C(=O)N[C@@H](CC(C)C)C(=O)N[C@@H](CC(C)C)C(=O)N[C@@H](CCC(N)=O)C(=O)N1)[C@@H](C)CC)C(=O)N[C@@H](CO)C(=O)N[C@@H](CCCNC(=N)N)C(N)=O [Peptide 23, cyclo^8,12; 21,25 [[PhAc^0,D-Arg^2,Phe(pCl)^6,Glu^8,25,D-Lys^12,Ala^15,Nle^27]hGH-RH(1-29)-NH2] (PhAc-Y[dR]DAI[Phe(4-Cl)]TESYR[dK]VLAQLSARKLLQEI[Nle]SR-NH2; lactam 8-12, 21-25)
[1]
  Ki: 456 pM

## CC[C@H](C)[C@H](NC(=O)[C@H](C)NC(=O)[C@H](CC(=O)O)NC(=O)[C@@H](CCCNC(=N)N)NC(=O)[C@H](Cc1ccc(O)cc1)NC(C)=O)C(=O)N[C@@H](Cc1ccccc1)C(=O)N[C@H](C(=O)N[C@@H](CC(N)=O)C(=O)N[C@@H](CO)C(=O)N[C@@H](Cc1ccc(O)cc1)C(=O)N[C@@H](CCCNC(=N)N)C(=O)N[C@@H](CCCCN)C(=O)N[C@H](C(=O)N[C@@H](CC(C)C)C(=O)NCC(=O)N[C@@H](CCC(N)=O)C(=O)N[C@@H](CC(C)C)C(=O)N[C@@H](CO)C(=O)N[C@@H](C)C(=O)N[C@@H](CCCNC(=N)N)C(=O)N[C@@H](CCCCN)C(=O)N[C@@H](CC(C)C)C(=O)N[C@@H](CC(C)C)C(=O)N[C@@H](CCC(N)=O)C(=O)N[C@@H](CC(=O)O)C(=O)N[C@H](C(=O)N[C@@H](CCSC)C(=O)N[C@@H](CO)C(=O)N[C@@H](CCCNC(=N)N)C(N)=O)[C@@H](C)CC)C(C)C)[C@@H](C)O [Standard antagonist, [Ac-Tyr^1,D-Arg^2]hGH-RH(1-29)NH2] (Ac-Y[dR]DAIFTNSYRKVLGQLSARKLLQDIMSR-NH2)
[1]
  Ki: 3370 ± 140 pM
[1]; relative to Standard antagonist (=1)
  relative affinities (R.A.): 1
[2]; 0 min response
  Inhibition of GH release (%) 0 min: 62.1%
[2]; 30 min response
  Inhibition of GH release (%) 30 min: 2.5%
[2]; 60 min response
  Inhibition of GH release (%) 60 min: 19%

## GH-RH(1-27)NH2 (YADAIFTNSYRKVLGQLSARKLLQDIM-NH2; UniProt P01286 32-58, looked up, fragment)
GH releasing activity
  bioactivity of shorter analogues: substantially lower bioactivity

## GH-RH(1-28)NH2 (YADAIFTNSYRKVLGQLSARKLLQDIMS-NH2; UniProt P01286 32-59, looked up, fragment)
GH releasing activity
  bioactivity of shorter analogues: substantially lower bioactivity

## [Ac-Tyr^1 ]GH-RH (Ac-YADAIFTNSYRKVLGQLSARKLLQDIMSRQQGESNQERGARARL; ends and bridges not checked; UniProt P01286 32-75, looked up)
GH releasing activity
  GH releasing activity relative to GH-RH: 2-3%

## [D-Tyr^1 ]GH-RH
GH releasing activity
  GH releasing activity relative to GH-RH: 2-3%

## [PhAc^0,D-Arg^2,Phe(pCl)^6,Abu^15,Nle^27 ]hGH-RH(1-28)Agm [Peptide B]
[3]
  Final Tumor Volume mm^3: 612 ± 220 mm^3
  Tumor weights: 931 ± 330 mg

## hGH-RH(2-44) (ADAIFTNSYRKVLGQLSARKLLQDIMSRQQGESNQERGARARL; ends and bridges not checked; UniProt P01286 33-75, looked up, fragment) [GH-RH without its N-terminus residue]
GH releasing activity
  GH releasing activity relative to GH-RH: 0.1%
